Converted amounts (≈) assume the structure as drawn.
What was measured:
Homo sapiens = organism: Homo sapiens; assay: Inhibition of human GALK1 K252A/E253A double mutant relative to control; design: concentration or dose not given beside the values; settings: concentration not given here
[1] = Stability of compound in rat microsomes assessed as half-life; assay type: ADME, Microsome
[2] = Binding affinity towards human GALK1 K252A/E253A double mutant measured by surface plasmon resonance (SPR) assay
[3] = Inhibition of recombinant mouse GALK1 using ATP as substrate incubated for 1 hr and measured by Kinase-Glo assay
[4] = Kinetic aqueous solubility of the compound; assay type: physicochemical; settings: buffer; read-out: Kinetic_solubility
[5] = Inhibition of human GALK1 K252A/E253A double mutant; settings: read-out: IC50
Fibroblast = assay: Inhibition of human GALK1 K252A/E253A double mutant in human skin fibroblasts at 10 uM assessed as reduction in Gal-1P accumulation; assay type: cell-based
Galactokinase = Galactokinase (Homo sapiens, UniProt P51570); assay: Inhibition of recombinant human GALK1 using ATP as substrate incubated for 1 hr and measured by Kinase-Glo assay
[6] = Permeability of compound by PAMPA assay; assay type: ADME; settings: read-out: permeability
[7] = Stability of compound in human liver microsomes assessed as half-life; assay type: ADME, Microsome
[8] = Stability of compound in rat liver microsomes assessed as half-life; assay type: ADME, Microsome
[9] = Stability of compound in mouse liver microsomes assessed as half-life; assay type: ADME, Microsome

Chain of Galactokinase (P51570 whole entry): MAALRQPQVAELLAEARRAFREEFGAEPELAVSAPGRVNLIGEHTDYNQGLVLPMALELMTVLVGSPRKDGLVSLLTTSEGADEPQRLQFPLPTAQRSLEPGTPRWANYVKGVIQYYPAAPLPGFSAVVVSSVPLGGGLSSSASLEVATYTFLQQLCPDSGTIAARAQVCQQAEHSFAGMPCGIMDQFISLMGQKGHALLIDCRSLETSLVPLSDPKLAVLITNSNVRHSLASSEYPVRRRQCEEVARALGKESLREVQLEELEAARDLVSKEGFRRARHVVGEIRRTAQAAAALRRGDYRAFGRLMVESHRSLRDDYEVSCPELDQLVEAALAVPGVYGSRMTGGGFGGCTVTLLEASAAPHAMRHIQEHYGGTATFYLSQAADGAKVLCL

Structure (SMILES)	inhibition (Homo sapiens) [%]	half-life [1] [min]	Kd [2] [nM]	IC50 ([3]; read-out: IC50) [nM]	solubility kinetic [4] [µg/mL]	IC50 [5] [nM]	IC50 (Galactokinase; read-out: IC50) [nM]	Papp [6] [×10⁻⁶ cm/s]	t1/2 [7] [min]	half-life [8] [min]	half-life [9] [min]	IC50 (Galactokinase)	IC50 [3]	inhibition (Fibroblast) [%]
CCOC(=O)c1ccc(NC(=O)C2=C(C)NC(Nc3nc4ccccc4o3)=NC2c2ccccc2Cl)cc1 (stereo not drawn)	–	> 30	–	–	< 1	–	3850	8.8	–	–	–	–	–	–
CC1=C(C(=O)N(C)c2ccccc2)C(c2ccccc2Cl)N=C(Nc2nc3ccccc3o2)N1 (stereo not drawn)	–	1.18	–	–	< 1	–	–	–	–	–	–	Not Active	Not Active	–
CC1=C(C(=O)Nc2nncs2)C2(Cc3ccccc32)N=C(Nc2nc3ccccc3o2)N1 (stereo not drawn)	–	> 30	–	–	50.9 (≈ 115 µM)	–	–	–	–	–	–	Not Active	Not Active	–
COC(=O)C1=C(C(F)(F)F)NC(Nc2nc3ccccc3o2)=NC1c1ccccc1Cl (stereo not drawn)	–	10.5	–	–	2.65 (≈ 5.88 µM)	–	–	–	–	–	–	Not Active	Not Active	–
COc1ccc2oc(NC3=NC(c4ccccc4Cl)C(C(=O)Nc4nnc(-c5cccnc5)s4)=C(C)N3)nc2c1 (stereo not drawn)	–	> 30	–	–	< 1	–	–	< 19.1	–	–	–	Not Active	Not Active	–
CC1=C(C(=O)Nc2ccc(Cl)cc2)C(c2ccccc2Cl)N=C(Nc2nc3ccccc3o2)N1 (stereo not drawn)	–	> 30	–	7690	< 1	–	–	2	–	–	–	Not Active	–	–
COCC1=C(C(=O)Nc2nncs2)C(c2ccccc2Cl)N=C(Nc2nc3ccccc3o2)N1 (stereo not drawn)	–	> 30	–	19300	< 1	–	13700	–	–	–	–	–	–	–
CC1=C(C(=O)Nc2cc(C(=O)O)ccn2)C(c2ccccc2Cl)N=C(Nc2nc3cccc(OC(F)(F)F)c3o2)N1 (stereo not drawn)	88	> 30	–	–	47.8 (≈ 81.4 µM)	> 15000	–	< 10	–	–	–	Not Active	Not Active	–
CCOC(=O)C1=C(C(C)C)NC(Nc2nc3ccccc3o2)=NC1c1ccccc1Cl (stereo not drawn)	–	5.75	–	–	< 1	–	–	–	–	–	–	Not Active	Not Active	–

More lines, main results first:

inhibition (Homo sapiens) [%]	half-life [1] [min]	Kd [2] [nM]	IC50 ([3]; read-out: IC50) [nM]	solubility kinetic [4] [µg/mL]	IC50 [5] [nM]	IC50 (Galactokinase; read-out: IC50) [nM]	Papp [6] [×10⁻⁶ cm/s]	t1/2 [7] [min]	half-life [8] [min]	half-life [9] [min]	IC50 (Galactokinase)	IC50 [3]	Structure (SMILES)	inhibition (Fibroblast) [%]
100	> 30	12	3430	> 76	77	–	–	–	–	–	–	–	CC1=C(C(=O)Nc2cc(C(=O)O)ccn2)C(c2ccccc2Cl)N=C(Nc2nc3cccc(N)c3o2)N1 (racemic)	–
–	14.1	–	610	< 1	22	–	–	–	–	–	–	–	CCn1cc(CNC(=O)C2=C(C)NC(Nc3nc4ccc(F)c(N)c4o3)=NC2c2ccc(C)cc2Cl)cn1 (racemic)	70
–	17.1	–	690	1.27 (≈ 2.43 µM)	14	–	–	47	16	13	–	–	CC1=C(C(=O)NCc2cnn(C)c2)C(c2ccc(C)cc2Cl)N=C(Nc2nc3ccc(F)c(N)c3o2)N1 (stereo not drawn)	100
100	> 30	23	4320	46.1 (≈ 88.5 µM)	260	–	–	–	–	–	–	–	CC1=C(C(=O)Nc2cc(C(=O)O)ccn2)C(c2ccccc2Cl)N=C(Nc2nc3ccc(F)cc3o2)N1 (racemic)	–
–	25.3	–	7080	< 1	–	2240	–	–	–	–	–	–	COC(=O)c1ccnc(NC(=O)C2=C(C)NC(Nc3nc4cccc(N)c4o3)=NC2c2ccc(C)cc2Cl)c1 (stereo not drawn)	–
–	17.9	–	1090	< 1	–	50	333	–	–	–	–	–	CCn1cc(C(C)NC(=O)C2=C(C)NC(Nc3nc4cccc(N)c4o3)=NC2c2ccc(C)cc2Cl)cn1 (stereo not drawn)	–
–	> 30	–	–	< 1	–	–	< 1.8	–	–	–	Not Active	Not Active	CC1=C(C(=O)Nc2cccc(Br)c2)C(c2ccccc2Cl)N=C(Nc2nc3ccccc3o2)N1 (stereo not drawn)	–
–	> 30	–	–	< 1	–	–	< 9.2	–	–	–	Not Active	Not Active	CC1=C(C(=O)Nc2cccc(Cl)c2)C(c2ccccc2Cl)N=C(Nc2nc3ccccc3o2)N1 (stereo not drawn)	–
–	11.9	–	–	< 1	–	–	–	–	–	–	Not Active	Not Active	CC1=C(C(=O)NCc2ccc(Cl)cc2)C(c2ccccc2Cl)N=C(Nc2nc3ccccc3o2)N1 (stereo not drawn)	–
–	> 30	–	–	< 1	–	–	< 2.9	–	–	–	Not Active	Not Active	CC1=C(C(=O)Nc2nnc(-c3cccnc3)s2)C(c2ccccc2Cl)N=C(Nc2nc3ccc(C)cc3o2)N1 (stereo not drawn)	–
–	4.22	–	–	< 1	–	–	–	–	–	–	Not Active	Not Active	CC1=C(C(=O)NCc2ccccc2Cl)C(c2ccccc2Cl)N=C(Nc2nc3ccccc3o2)N1 (stereo not drawn)	–

— ChEMBL document CHEMBL5050861 (2021)
